Results: patent US9211305B2, “Pharmaceutical compositions with glycosaminoglycans and use thereof in the treatment of chronic ulcers” (LABORATORIOS FARMACEUTICOS ROVI S.A., priority 2008, dated 2015)
Several values for one entry are separate records, joined by “and”; a condition that tells them apart may be missing. Equal values may be shown once. Entries after “also recorded” stand apart in the source; their conditions may differ. Marks after values point to notes of the source that are not given here.

Assays:
diabetic wistar rat [1] = assay: Example 2: ulcer area reduction in streptozocin-diabetized rats, subcutaneous route; type: in vivo; conditions: for percentage of area reduction of day 9 with respect to day 1: single ulcers
Method: To perform the present embodiment, doses of 45 mg/kg of streptozocin (STZ) were administered by intramuscular route to make a batch of 8 rats diabetic (Andrades Ja et al. Engineering, expression, and renaturation of a collagen-targeted human bFGF fusion protein. Growth Factors. 2001; 18(4):261-75).
Male wistar rats with a average weight of 250 g per rat were used, to which a dose of 11.25 mg STZ per rat was administered by means of the intramuscular administration of 100 μL in the left paw of each rat.
Sweetened water (350 mg/dL) was administered to all the rats for three days and glucose measurements were performed with a glucometer every day to verify that the rats were indeed diabetized. For this reason, before the administration and at time 4 days after the administration of streptozocin, a drop of blood was extracted from the rat tail vein for the subsequent quantification of glycemia and see whether they were diabetic before starting the ulceration assay.
Once the rats were diabetized, 2 ulcers with a diameter of 1 cm each were made on them using a scalpel. An anesthesia/analgesia protocol with ketamine/xylazine was followed according to the recommendations of the book: “Handbook of laboratory animal management and welfare”:
(§1) The ulcers were treated with water and cleaned for 9 days after the ulceration.
The administrations of bemiparin and of fondaparinux were performed by means of a bemiparin solution by subcutaneous route (100 μL) for the treatment of the ulcers.
(§2) The diameter of the ulcer was quantified by means of tracing the ulcer onto a transparency to see the progress of the healing.

diabetic wistar rat [2] = assay: Example 3: percentage of ulcer healing in diabetic rats, SC route; type: in vivo; conditions: 0.22 mg/rat SC, one rat
Method: To perform the present embodiment, doses of 45 mg/kg of streptozocin (STZ) were administered by intramuscular route to make a batch of 10 rats diabetic (Andrades Ja et al. Engineering, expression, and renaturation of a collagen-targeted human bFGF fusion protein. Growth Factors. 2001; 18(4):261-75).
(§3) Male wistar rats with an average weight of 250 g per rat were used, to which a dose of 11.25 mg STZ per rat was administered by means of the intramuscular administration of 100 μL in the left paw of each rat.
(§4) Diabetes was induced in 6 of all the rats and 4 of them were left as a non-diabetic control, to test the result of the healing of chronic ulcers not caused by diabetes.
Sweetened water (350 mg/dL) was administered to the rats for three days and glucose measurements were performed with a glucometer every day to verify that the rats were indeed diabetized. For this reason, before the administration and at time 4 days after the administration of streptozocin, a drop of blood was extracted from the rat tail vein for the subsequent quantification of glycemia and see whether they were diabetic before starting the ulceration assay.
Once the rats are ready, 2 ulcers with a diameter of 1 cm each were made on them using a scalpel. […]

Non-Diabetized Rats = assay: Wound healing by oral route in non-diabetized rats; type: in vivo, Wistar rat; conditions: for histopathological Grade / histopathological Score: sacrifice day 15, fondaparinux 10 mg/kg, bemiparin 100 mg/kg
Method: Both treatments were administered by oral route at an administration volume of 10 mL/kg. In the case of fondaparinux, a dose of 10 mg/kg was administered and in the case of bemiparin, 100 mg/kg were administered.
The control group only received the carrier used to prepare the assay product. The carrier for the preparation of the assay product is a 1.5% (w/v) bicarbonate solution in water for injections. It was verified that the pH of the formulations prepared was above 8.00.
The animals were anesthetized (ketamine+xylazine, 90+10 mg/kg, i.m.). Their back was shaved and cleaned with disinfectant (povidone-iodine) and the area where the wound would be made was marked by means of a template to homogenize its position in all the animals.
The wound was made by means of a circular incision with a diameter of approximately 1.5 cm, the skin of the mid-dorsal area being removed. 1 mL/animal of physiological serum was administered by i.p. route after the intervention. […]. Analgesia (paracetamol, 1 mg/mL) was provided in drinking water for the 7 days after the intervention.
On the day after making the wound and for a total of 14 days, the assigned treatments were administered to the animals. The follow-up of the animals was performed, the evolution of the wounds being macroscopically assessed twice a week, by means of digital photography of the wound. The body weight of the animals was also recorded twice a week.
On the day after the last administration, the animals were sacrificed with anesthesia overdose (pentobarbital sodium). The area where the wound was made was extracted. The front half was frozen in liquid nitrogen and stored in a freezer (−80±5° C.) and the rear half was stored in formol for its subsequent histological processing.
The wound area was calculated as the percentage of reduction thereof to evaluate the degree of curing thereof, by means of the standardized formula: […]
On the following day and for a total of 14 days, 10 mg/kg were administered to the animals by oral route.
The follow-up of the animals was performed, the evolution of the wounds being macroscopically assessed twice a week, by means of digital photography of the wound. The body weight of the animals was also recorded twice a week.
The animals were sacrificed on day 15 of the study and the area of the skin where the wound was caused was stored in formol to perform a histopathological evaluation (hematoxylin-eosin staining).
Each section was given a histological score was given in the grade I to grade V range, where I means uncured wound and V means completely epithelialized wound. The score is based on the degree of cell invasion, the formation of granulation tissue, vascularization and epithelialization.

diabetic wistar rat [3] = assay: Example 1: ulcer area reduction in streptozocin-diabetized rats, subcutaneous route; type: in vivo
Method: To perform the present example, doses of 45 mg/kg of streptozocin (STZ) were administered by intramuscular route to make a batch of 8 rats diabetic (Andrades Ja et al. Engineering, expression, and renaturation of a collagen-targeted human bFGF fusion protein. Growth Factors. 2001; 18(4):261-75).
as §3
Sweetened water (350 mg/dL) was administered to all the rats for three days and glucose measurements were performed with a glucometer every day to verify that the rats were indeed diabetized. For this reason, before the administration and at time 4 days after the administration of streptozocin, a drop of blood was extracted from the rat tail vein for the subsequent quantification of glycemia and to see whether they were diabetic before starting the ulceration assay.
Once the rats were diabetized, 4 ulcers with a diameter of 1 cm each were made on them using a scalpel. An anesthesia/analgesia protocol with Ketamine/xylazine was followed according to the recommendations of the book: “Handbook of laboratory animal management and welfare”:
as §1
The administrations of bemiparin were performed by means of a bemiparin solution by subcutaneous route (100 μL) for the treatment of the ulcers.
as §2

non-diabetic rats = assay: Example 3: percentage of ulcer healing in non-diabetic rats, SC route; type: in vivo, Wistar rat; conditions: for percentage of healing of day 9 with respect to day 1, Average: Group 1, non-diabetic, 217 IU/rat SC
Method: as §4
Once the rats are ready, 2 ulcers with a diameter of 1 cm each were made on them using a scalpel. An anesthesia/analgesia protocol with ketamine/xylazine was followed according to the recommendations of the book: “Handbook of laboratory animal management and welfare”:
The ulcers were treated with water and cleaned for 9 days after the ulceration. A corresponding solution was administered to each group by SC route (100 μL) for the treatment of the ulcers. The diameter of the ulcer was quantified by means of tracing the ulcer onto a transparency to see the progress of the healing.

[4] = Fondaparinux rats, Batch 3, 0.22 mg per rat, subcutaneous
[5] = 108 IU rats, Batch 2, subcutaneous
[6] = 217 IU rats, Batch 1, subcutaneous

Row | Molecule | percentage of area reduction of day 9 with respect to day 1, Average (diabetic wistar rat [1]; [4]) [%] | percentage of area reduction of day 9 with respect to day 1 (diabetic wistar rat [1]; [4]) | percentage of healing of day 9 with respect to day 1, Average (diabetic wistar rat [2]) [%] | percentage of healing of day 9 with respect to day 1 (diabetic wistar rat [2]; single ulcers) | histopathological Grade (Non-Diabetized Rats; oral, 14 days) | histopathological Score (Non-Diabetized Rats; oral, 14 days) | percentage of area reduction of day 9 with respect to day 1, Average (diabetic wistar rat [3]; 108 IU rat, subcutaneous, ulcer E excluded) [%] | macroscopic healing process (diabetic wistar rat [3]; 217 IU rat compared with 108 IU rat) | percentage of area reduction of day 9 with respect to day 1, Average (diabetic wistar rat [3]; 217 IU rat, subcutaneous) [%] | percentage of area reduction of day 9 with respect to day 1 (diabetic wistar rat [3]; single ulcers, 217 IU rat, subcutaneous) | percentage of area reduction of day 9 with respect to day 1, Average (diabetic wistar rat [1]; [5]) [%] | percentage of area reduction of day 9 with respect to day 1, Average (diabetic wistar rat [1]; [6]) [%] | macroscopic healing process (diabetic wistar rat [1]; day 9 with respect to day 0, bemiparin 217 IU) | percentage of area reduction of day 9 with respect to day 1 (diabetic wistar rat [1]; [5]) | percentage of area reduction of day 9 with respect to day 1 (diabetic wistar rat [1]; [6]) | macroscopic healing process (non-diabetic rats; Group 1 (217 IU/rat) compared with the rest of groups) | percentage of healing of day 9 with respect to day 1, Average (non-diabetic rats) [%] | percentage of healing of day 9 with respect to day 1, Average (non-diabetic rats; listed as bemiparin) [%] | reduction of the ulceration area (Non-Diabetized Rats; oral 100 mg/kg, 14 days) | scab formation (Non-Diabetized Rats; oral, compared with fondaparinux)
1 | CO[C@H]1O[C@H](COS(=O)(=O)O)[C@@H](O[C@@H]2O[C@@H](C(=O)O)[C@@H](O[C@H]3O[C@H](COS(=O)(=O)O)[C@@H](O[C@@H]4O[C@H](C(=O)O)[C@@H](O[C@H]5O[C@H](COS(=O)(=O)O)[C@@H](O)[C@H](O)[C@H]5NS(=O)(=O)O)[C@H](O)[C@H]4O)[C@H](OS(=O)(=O)O)[C@H]3NS(=O)(=O)O)[C@H](O)[C@H]2OS(=O)(=O)O)[C@H](O)[C@H]1NS(=O)(=O)O [Fondaparinux] | 20.70 | 17.00%* and 20.69% and 21.32% and 23.81% | 50.22 | A 50.99%; also recorded: B 49.55% | III (7-9 Moderately thick granulation tissue. It can vary from being dominated by inflammatory cells to greater presence of fibroblasts and collagen deposition, extensive neovascularization, minimum to moderate epithelial migration.) | 9.5 |  |  |  |  |  |  |  |  |  |  |  |  |  | 
2 | Bemiparin |  |  |  |  | III (7-9 Moderately thick granulation tissue. It can vary from being dominated by inflammatory cells to greater presence of fibroblasts and collagen deposition, extensive neovascularization, minimum to moderate epithelial migration.) | 9.0 | 24.39 ± 7.47 | macroscopically much better | 27.35 ± 7.25 | 26.2% and 20.14% and 25.64% and 37.43% | 24.39 ± 7.47 | 27.35 ± 7.25 | macroscopically much better than in the case of fondaparinux | 16.96% and 13.26% and 19.14% and 19.71% | 29.31% and 31.85% and 28.40% and 24.89% | macroscopically much better | 71.82 | 71.82 | more or less to the same extent as the control animals | much more pronounced scab process
